{
  "source": "patent EP1108430A1",
  "about": "“CALCIUM CHANNEL ANTAGONISTS” (Nippon Shinyaku Co., Ltd., priority 1998, dated 2000)",
  "key": {"[1]": {"test_system": "nitric oxide synthase (NOS)", "assay": "cells", "assay_type": "cell-based, mouse"}, "[2]": {"test_system": "dopamine release from the rat striatum", "assay": "In vivo dopamine release from the striatum (microdialysis)", "details": "for effect on dopamine release: rat, in vivo", "experimental": "The release of dopamine from the rat striatum was measured by the in vivo microdialysis method. A microdialysis probe fitted with a microinjection cannula was inserted into the striatum of an 8∼10·week·old male SD rat and the striatum was perfused with Ringer's solution at a rate of 2 µl/min.\nBeginning 2 hours after the start of perfusion, the perfusate was recovered at a 20-minute interval and the dopamine in each perfusate was measured with a high-performance liquid chromatography-electrochemical detector. The drug was perfused into the striatum through the microdialysis probe or microinjected into the striatum via the microinjection cannula. The effect of the drug on the basal dopamine release was evaluated by comparing the values before and after stimulation and a statistical analysis was made by Dunnett's test. Then, to evaluate the effect of Compound 1A on KCl·stimulated dopamine release, the amount of dopamine released in the presence of Compound 1A (10 µM) (ipsilateral striatum) was compared with the amount of KCl-stimulated dopamine release in the absence of Compound 1A (contralateral striatum) and the difference was statistically analyzed by paired t-test.\nTherefore, with a microdialysis probe inserted bilaterally, one of the striatum was perfused with Ringer's solution (control side) and the other striatum with Compound 1A (10 µM). K^+ stimulation, 25∼80 mM, was consecutively given at a 20-minute interval."}, "[3]": {"test_system": "mouse cerebral cortex-derived primary cultured neurons", "assay": "Elevation of intracellular calcium ion concentration under high-potassium stimulation (fura-2/AM 2-wavelength fluorescence)", "assay_type": "cell-based", "details": "1 - 30 µM; added 10 minutes before the second stimulation; Fig. 2; Dunnett's test, p<0.01", "experimental": "In the dish (the bottom opening fitted with cover glass) used for the measurement of calcium ion concentration, neurons on day 5 of culture were allowed to take up the fluorescent calcium probe fura-2/AM before determination. Thus, cultured neurons were incubated in 10 mM HEPES-NaOH buffer (pH 7.05) containing 10 µM fura-2/AM, 5.4 mM KC1, 130 mM NaCl, 2.5 mM CaCl2 and 5.5 mM D-glucose at 37°C for 30 minutes to let fura-2/AM taken up in the cells. Thereafter, incubation was further continued for 30 minutes, whereby the fura-2/AM taken up in the cells was converted to fura-2 by endogenous esterase activity. […]\nThe calcium ion concentration was determined by the method of Grynkiewicz et al. (1985). Thus, by fluorescent microscope-image processing, the calcium ion concentration was determined from the fluorescence intensities of fura - 2/Ca^2+ at the exciting wavelengths of 340 nm and 380 nm. Using Argus-50/CA System (Hamamatsu Photonics), a calibration curve constructed beforehand was transformed to find the intracellular calcium ion concentration from the fluorescence intensity ratio.\nThe high-potassium stimulus was given twice, 15 minutes apart and for 15 seconds each, and the ratio of increase in free calcium ion concentration in response to the stimulations was calculated. […]"}, "[4]": {"molecular_target": "P/Q-type Ca^2+ channel (Mus musculus, UniProt P97445)", "sequence (P97445 whole entry)": "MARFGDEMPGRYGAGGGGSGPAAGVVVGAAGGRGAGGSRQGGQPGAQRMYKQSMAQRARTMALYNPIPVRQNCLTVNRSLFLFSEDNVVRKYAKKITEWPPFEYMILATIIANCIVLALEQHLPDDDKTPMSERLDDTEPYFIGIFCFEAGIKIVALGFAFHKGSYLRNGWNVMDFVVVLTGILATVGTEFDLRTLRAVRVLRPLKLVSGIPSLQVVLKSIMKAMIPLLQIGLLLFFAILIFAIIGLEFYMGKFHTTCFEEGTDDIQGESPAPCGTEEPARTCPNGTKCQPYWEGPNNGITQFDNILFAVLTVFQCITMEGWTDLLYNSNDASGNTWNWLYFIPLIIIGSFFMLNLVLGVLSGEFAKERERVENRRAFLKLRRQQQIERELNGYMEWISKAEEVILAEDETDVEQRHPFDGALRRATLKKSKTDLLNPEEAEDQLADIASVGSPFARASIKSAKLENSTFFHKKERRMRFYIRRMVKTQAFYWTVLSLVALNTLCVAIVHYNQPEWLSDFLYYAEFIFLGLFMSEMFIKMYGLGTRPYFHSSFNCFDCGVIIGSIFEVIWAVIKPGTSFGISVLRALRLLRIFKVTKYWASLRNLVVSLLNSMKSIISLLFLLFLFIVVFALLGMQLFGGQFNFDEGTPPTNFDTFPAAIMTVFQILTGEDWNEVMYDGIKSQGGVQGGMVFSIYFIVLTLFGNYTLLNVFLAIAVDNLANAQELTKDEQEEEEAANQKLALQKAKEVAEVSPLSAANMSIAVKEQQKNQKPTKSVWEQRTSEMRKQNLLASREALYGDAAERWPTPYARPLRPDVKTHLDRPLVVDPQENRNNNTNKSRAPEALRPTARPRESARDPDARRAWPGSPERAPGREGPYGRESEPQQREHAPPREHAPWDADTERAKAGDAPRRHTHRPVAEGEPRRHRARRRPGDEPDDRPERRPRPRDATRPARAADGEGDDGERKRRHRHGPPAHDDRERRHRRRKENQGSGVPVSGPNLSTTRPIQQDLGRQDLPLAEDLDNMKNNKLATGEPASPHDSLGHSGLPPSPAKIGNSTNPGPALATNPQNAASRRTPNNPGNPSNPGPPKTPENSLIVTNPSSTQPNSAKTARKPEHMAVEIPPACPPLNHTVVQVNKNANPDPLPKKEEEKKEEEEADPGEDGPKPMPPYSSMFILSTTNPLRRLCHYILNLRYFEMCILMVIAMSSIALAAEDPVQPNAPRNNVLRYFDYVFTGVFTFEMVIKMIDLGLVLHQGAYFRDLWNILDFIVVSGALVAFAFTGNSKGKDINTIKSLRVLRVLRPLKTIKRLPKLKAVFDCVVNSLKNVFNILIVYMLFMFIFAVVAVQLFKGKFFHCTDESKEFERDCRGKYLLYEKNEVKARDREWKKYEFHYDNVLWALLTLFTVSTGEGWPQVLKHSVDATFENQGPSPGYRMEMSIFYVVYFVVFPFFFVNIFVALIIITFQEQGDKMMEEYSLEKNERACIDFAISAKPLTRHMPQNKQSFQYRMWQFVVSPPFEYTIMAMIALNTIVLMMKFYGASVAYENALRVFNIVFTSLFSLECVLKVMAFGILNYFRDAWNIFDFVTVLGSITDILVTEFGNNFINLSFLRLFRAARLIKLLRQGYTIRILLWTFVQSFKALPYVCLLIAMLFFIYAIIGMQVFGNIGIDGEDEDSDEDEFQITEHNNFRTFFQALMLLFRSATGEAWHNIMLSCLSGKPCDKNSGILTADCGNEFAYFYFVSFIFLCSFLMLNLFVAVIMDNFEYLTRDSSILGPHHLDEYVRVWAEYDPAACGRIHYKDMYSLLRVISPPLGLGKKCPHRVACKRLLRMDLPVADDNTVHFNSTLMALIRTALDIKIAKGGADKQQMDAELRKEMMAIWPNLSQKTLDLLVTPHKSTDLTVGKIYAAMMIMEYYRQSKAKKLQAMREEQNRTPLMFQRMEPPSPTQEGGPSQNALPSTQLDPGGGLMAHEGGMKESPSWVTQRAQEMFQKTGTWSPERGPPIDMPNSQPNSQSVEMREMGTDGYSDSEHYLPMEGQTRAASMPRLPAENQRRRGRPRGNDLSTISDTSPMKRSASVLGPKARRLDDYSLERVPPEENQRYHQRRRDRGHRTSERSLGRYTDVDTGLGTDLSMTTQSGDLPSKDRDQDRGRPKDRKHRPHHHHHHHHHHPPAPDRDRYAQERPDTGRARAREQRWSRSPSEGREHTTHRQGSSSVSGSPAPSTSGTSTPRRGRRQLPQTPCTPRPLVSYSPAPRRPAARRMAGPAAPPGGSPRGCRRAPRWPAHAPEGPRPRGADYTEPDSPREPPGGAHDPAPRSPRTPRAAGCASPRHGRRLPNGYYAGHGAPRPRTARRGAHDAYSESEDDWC", "assay": "KCl-induced NOS activation in the presence of 1 µM nifedipine (response mediated by the P/Q-type channel)", "assay_type": "cell-based"}, "[5]": {"test_system": "L-type Ca^2+ channel", "assay_type": "cell-based, mouse", "details": "3∼30 µM; Dunnett's test; Fig. 1"}},
  "data": [
    {"molecule": "ω-conotoxin GVIA [reference compound]", "values": [
      {"measurement": "effect on the NOS activation by KCl stimulation", "setting": "[1]; 5 µM", "result": "substantially no effect"},
      {"measurement": "effect on dopamine release", "setting": "[2]", "result": "significant decrease (p<0.01)"}
    ]},
    {"molecule": "COC(=O)C1=C(C)NC(C)=C(C(=O)OC)C1c1ccccc1[N+](=O)[O-]", "note": "[nifedipine]", "values": [
      {"measurement": "inhibition at 1 µM", "setting": "[1]; Mus musculus, Neuron, read-out: inhibition of NOS activated on high-potassium stimulation of neurons", "result": "~56", "unit": "%"}
    ]},
    {"molecule": "ω-agatoxin IVA [reference compound]", "values": [
      {"measurement": "inhibition of NOS activated on high-potassium stimulation of neurons", "setting": "[1]; 0.1 µM", "result": "about 53%"},
      {"measurement": "effect on dopamine release", "setting": "[2]", "result": "significant decrease (p<0.01)"}
    ]},
    {"molecule": "Cc1nc(OCCCCCN2CCCCC2)cc(-c2ccc(F)cc2)n1", "note": "[Compound 1A, 4-(4-fluorophenyl)-2-methyl-6-(5-piperidinopentyloxy)pyrimidine]", "values": [
      {"measurement": "inhibition of the high-potassium-stimulated increase in intracellular calcium ion concentration", "setting": "[3]", "result": "inhibit the high-potassium-stimulated increase in intracellular calcium ion concentration in a concentration-dependent manner"},
      {"measurement": "inhibition of the response mediated by the P/Q-type Ca^2+ channel (NOS activation in the presence of 1 µM nifedipine)", "setting": "[4]; 10 µM", "result": "completely inhibited"},
      {"measurement": "inhibition of the NOS activation in the presence of 1 µM nifedipine (the response mediated by the P/Q-type Ca^2+ channel)", "setting": "[4]; 3∼30 µM, Dunnett's test, Fig. 1", "result": "significant (P<0.01) and concentration-dependent inhibitions"},
      {"measurement": "inhibition of the NOS activation in the presence of 0.1 µM ω-agatoxin IVA (the response mediated by the L-type Ca^2+ channel)", "setting": "[5]", "result": "significant (P<0.01) and concentration-dependent inhibitions"},
      {"measurement": "inhibition of dopamine release at 80 mM KCl", "setting": "[2]; 10 µM perfused into the striatum, 80 mM KCl, Fig. 3, p<0.05, paired t-test", "result": "inhibited dopamine release significantly"},
      {"measurement": "inhibitory effect on dopamine release under K^+ stimulation", "setting": "[2]; 10 µM perfused into the striatum, K^+ stimulation 25∼80 mM at a 20-minute interval, versus contralateral control side", "result": "marked inhibitory effects on dopamine release with an increasing potassium concentration"}
    ]}
  ]
}
